Measured values taken from PubChem BioAssay (NCI).
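Five compound concentrations were applied to cells in 96-well plates for 48 hours; endpoints were derived by simple linear interpolation of the resulting dose-response curve. GI50: concentration for 50% inhibition of growth. TGI is the concentration that stops growth completely.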

Columns and labels:
Assay in all cases: inhibition of tumour cell growth, NCI panel, 48 h
SK-MEL-5 melanoma = test system: SK-MEL-5 melanoma
MDA-MB-468 breast = test system: MDA-MB-468 breast
MALME-3M melanoma = test system: MALME-3M melanoma
HS 578T breast = test system: HS 578T breast
T-47D breast = test system: T-47D breast
SF-539 CNS = test system: SF-539 CNS
OVCAR-4 ovarian = test system: OVCAR-4 ovarian
MOLT-4 leukemia = test system: MOLT-4 leukemia
SR leukemia = test system: SR leukemia
MCF7 breast = test system: MCF7 breast
UACC-257 melanoma = test system: UACC-257 melanoma
HCC-2998 colon = test system: HCC-2998 colon
NCI-H226 lung = test system: NCI-H226 lung
A498 renal = test system: A498 renal
SK-OV-3 ovarian = test system: SK-OV-3 ovarian
EKVX NSCLC = test system: EKVX NSCLC
PC-3 prostate = test system: PC-3 prostate
HOP-62 NSCLC = test system: HOP-62 NSCLC
TK-10 renal = test system: TK-10 renal
NCI-H460 lung = test system: NCI-H460 lung
OVCAR-3 ovarian = test system: OVCAR-3 ovarian
OVCAR-5 ovarian = test system: OVCAR-5 ovarian
HL-60(TB) leukemia = test system: HL-60(TB) leukemia
CCRF-CEM leukemia = test system: CCRF-CEM leukemia
ACHN renal = test system: ACHN renal
SN12C renal = test system: SN12C renal
CAKI-1 renal = test system: CAKI-1 renal
RXF 393 renal = test system: RXF 393 renal
DU-145 prostate = test system: DU-145 prostate
COLO 205 colon = test system: COLO 205 colon
NCI-H522 lung = test system: NCI-H522 lung
BT-549 breast = test system: BT-549 breast
U251 CNS = test system: U251 CNS
A549 NSCLC = test system: A549 NSCLC
SF-295 CNS = test system: SF-295 CNS
HCT-116 colon = test system: HCT-116 colon
K-562 leukemia = test system: K-562 leukemia
SF-268 CNS = test system: SF-268 CNS
NCI/ADR-RES ovarian = test system: NCI/ADR-RES ovarian
HCT-15 colon = test system: HCT-15 colon
RPMI-8226 leukemia = test system: RPMI-8226 leukemia
KM12 colon = test system: KM12 colon
LOX IMVI melanoma = test system: LOX IMVI melanoma
SNB-19 CNS = test system: SNB-19 CNS
HT29 colon = test system: HT29 colon
NCI-H23 lung = test system: NCI-H23 lung
UACC-62 melanoma = test system: UACC-62 melanoma
SK-MEL-28 melanoma = test system: SK-MEL-28 melanoma
MDA-MB-435 = test system: MDA-MB-435
OVCAR-8 ovarian = test system: OVCAR-8 ovarian
786-0 renal = test system: 786-0 renal
SW-620 colon = test system: SW-620 colon
IGROV1 ovarian = test system: IGROV1 ovarian
M14 melanoma = test system: M14 melanoma
HOP-92 NSCLC = test system: HOP-92 NSCLC

## CC[C@]12C=CCN3CC[C@@]4(c5ccc(OC)cc5N(C)[C@H]4[C@@](O)(C(=O)OC)[C@@H]1OC(=O)CCC[P+](C1CCCCC1)(C1CCCCC1)C1CCCCC1)[C@@H]32
SK-MEL-5 melanoma
  GI50: 1.76 µM
  TGI: 3.28 µM
MDA-MB-468 breast
  GI50: 0.313 µM
  TGI: 1.29 µM
MALME-3M melanoma
  GI50: 1.46 µM
  TGI: 3.26 µM
HS 578T breast
  GI50: 2.45 µM
  TGI: 7.91 µM
T-47D breast
  GI50: 1.32 µM
  TGI: 11.4 µM
SF-539 CNS
  GI50: 2.94 µM
  TGI: 10.7 µM
OVCAR-4 ovarian
  GI50: 2.39 µM
  TGI: 12.4 µM
MOLT-4 leukemia
  GI50: 2.16 µM
  TGI: 6.51 µM
SR leukemia
  GI50: 1.35 µM
  TGI: 4.01 µM
MCF7 breast
  GI50: 1.19 µM
  TGI: 7.67 µM
UACC-257 melanoma
  GI50: 1.26 µM
  TGI: 3.34 µM
HCC-2998 colon
  GI50: 1.7 µM
  TGI: 7.68 µM
NCI-H226 lung
  GI50: 4.06 µM
  TGI: 17.2 µM
A498 renal
  GI50: 12.4 µM
  TGI: 26.2 µM
SK-OV-3 ovarian
  GI50: 2.59 µM
  TGI: 7.57 µM
EKVX NSCLC
  GI50: 3.09 µM
  TGI: 16 µM
PC-3 prostate
  GI50: 1.71 µM
  TGI: 11.4 µM
HOP-62 NSCLC
  GI50: 3.68 µM
  TGI: 13.7 µM
TK-10 renal
  GI50: 2.73 µM
  TGI: 12.1 µM
NCI-H460 lung
  GI50: 2.77 µM
  TGI: 11.3 µM
OVCAR-3 ovarian
  GI50: 1.74 µM
  TGI: 9.08 µM
OVCAR-5 ovarian
  GI50: 3.19 µM
  TGI: 12 µM
HL-60(TB) leukemia
  GI50: 0.322 µM
  TGI: 1.34 µM
CCRF-CEM leukemia
  GI50: 1.69 µM
  TGI: 11.6 µM
ACHN renal
  GI50: 15.2 µM
  TGI: 28.6 µM
SN12C renal
  GI50: 2.89 µM
  TGI: 10.1 µM
CAKI-1 renal
  GI50: 16.4 µM
  TGI: 30.3 µM
RXF 393 renal
  GI50: 1.47 µM
  TGI: 5.04 µM
DU-145 prostate
  GI50: 3.75 µM
  TGI: 15.2 µM
COLO 205 colon
  GI50: 0.43 µM
  TGI: 1.44 µM
NCI-H522 lung
  GI50: 0.688 µM
  TGI: 4.98 µM
BT-549 breast
  GI50: 2.44 µM
  TGI: 5.82 µM
U251 CNS
  GI50: 0.746 µM
  TGI: 11.8 µM
A549 NSCLC
  GI50: 3.46 µM
  TGI: 13.7 µM
SF-295 CNS
  GI50: 4.41 µM
  TGI: 16.5 µM
HCT-116 colon
  GI50: 2.85 µM
  TGI: 11.4 µM
K-562 leukemia
  GI50: 1.32 µM
  TGI: 12.5 µM
SF-268 CNS
  GI50: 3.23 µM
  TGI: 13 µM
NCI/ADR-RES ovarian
  GI50: 35.6 µM
  TGI: > 100 µM
HCT-15 colon
  GI50: 15.3 µM
  TGI: 29.2 µM
RPMI-8226 leukemia
  GI50: 0.383 µM
  TGI: 2.22 µM
KM12 colon
  GI50: 1.63 µM
  TGI: 4.08 µM
LOX IMVI melanoma
  GI50: 2.88 µM
  TGI: 10.5 µM
SNB-19 CNS
  GI50: 2.22 µM
  TGI: 11.5 µM
HT29 colon
  GI50: 1.88 µM
  TGI: 4.05 µM
NCI-H23 lung
  GI50: 2.31 µM
  TGI: 8.3 µM
UACC-62 melanoma
  GI50: 1.41 µM
  TGI: 3.06 µM
SK-MEL-28 melanoma
  GI50: 1.08 µM
  TGI: 2.76 µM
MDA-MB-435
  GI50: 1.83 µM
  TGI: 5.33 µM
OVCAR-8 ovarian
  GI50: 2.97 µM
  TGI: 11.7 µM
786-0 renal
  GI50: 4.45 µM
  TGI: 16.7 µM
SW-620 colon
  GI50: 2.95 µM
  TGI: 14.6 µM
IGROV1 ovarian
  GI50: 1.39 µM
  TGI: 5.28 µM
M14 melanoma
  GI50: 1.92 µM
  TGI: 8.29 µM
HOP-92 NSCLC
  GI50: 1.01 µM
  TGI: 4.03 µM
